Assay results published in the supplement of paper PMC11208160.

Assay: recombinant UMI read abundance after kanamycin selection (control-corrected) (log10(CPM+1)); higher = more efficient recombination; extreme values may be limits of the assay; sequences stand for … in AGTGCAGAGAAAATCGGCCAGTTTTCTCTGCCTGCAGTCCGCATGCCGTGGGACCCCTTGGGTTCTAACCTGTTGCCTAGATTTATGCAGCGGACTGCCTTTCTCCCAAAGTGATAAACCGG…AGGTTGGTTTCACT; site = the 11-nt donor
How it was run: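 Sequenced counts of recombinant UMIs were turned into CPM, averaged across replicates and scaled with control-derived factors. The reported figure is log10(CPM+1). Those UMIs, each 12 nt long, tagged donor and donor-binding-loop pairs on a plasmid with a promoterless kanamycin gene, screened as a pool in Escherichia coli with IPTG (0.07 mM) plus kanamycin or without selection.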
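Further: IS621 bridge recombinase in Escherichia coli cells against a fixed T5 target plasmid.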

Sequence | recombinant UMI read abundance (log10)
CGTTAGACATGGACCGGTTTTCCCGGTAATCCGTATTTGAG (site CGTTAGACTCT) | 1.55
CGTTAGACATGGACCGGTTTTCCCGGTAATCCGTATTTGAG (site CGTTAGACTGT) | 0.00425
CGTTAGACATGGACCGGTTTTCCCGGTAATCCGTATTTGAG (site CGTTAGACTTT) | 0.315
CGTTAGACATGGACCGGTTTTCCCGGTAATCCGTATTTGAG (site CGTTAGCCTCT) | 0.021
CGTTAGACATGGACCGGTTTTCCCGGTAATCCGTATTTGAG (site CGTTAGGCTCT) | 0.214
CGTTAGACATGGACCGGTTTTCCCGGTAATCCGTATTTGAG (site CGTTAGTCTCT) | 0.506
CGTTAGACATGGACCGGTTTTCCCGGTAATCCGTATTTGAG (site CGTTATACTCT) | 0.0136
CGTTAGACATGGACCGGTTTTCCCGGTAATCCGTATTTGAG (site CGTTCGACTCT) | 0.00605
CGTTAGACATGGACCGGTTTTCCCGGTAATCCGTATTTGAG (site CGTTGGACTCT) | 0.013
CGTTAGACATGGACCGGTTTTCCCGGTAATCCGTATTTGAG (site CGTTTGACTCT) | 0.0164
CGTTAGACATGGACCGGTTTTCCCGGTAATCCGTATTTGAG (site CTTTAGACTCT) | 0.00778
CGTTAGACATGGACCGGTTTTCCCGGTAATCCGTATTTGAG (site GGTTAGACTCT) | 0.0132
CGTTAGACATGGACCGGTTTTCCCGGTAATCCGTATTTGAG (site TGTTAGACTCT) | 0.0126
CGTTAGACATGGACCGGTTTTCCCGGTAATCCGTATTTGGG (site CGTTAGACTCA) | 0
CGTTAGACATGGACCGGTTTTCCCGGTAATCCGTATTTGGG (site CGTTAGACTCC) | 0.0132
CGTTAGACATGGACCGGTTTTCCCGGTAATCCGTATTTGGG (site CGTTAGACTCG) | 0.0116
CGTTAGACATGGACCGGTTTTCCCGGTAATCCGTATTTGGG (site CGTTAGACTCT) | 0.512
CGTTAGACATGGACCGGTTTTCCCGGTAATCCGTATTTGTG (site CGTTAGACTCA) | 1.14
CGTTAGACATGGACCGGTTTTCCCGGTAATCCGTATTTGTG (site CGTTAGACTCC) | 0.0241
CGTTAGACATGGACCGGTTTTCCCGGTAATCCGTATTTGTG (site CGTTAGACTCG) | 0.198
CGTTAGACATGGACCGGTTTTCCCGGTAATCCGTATTTGTG (site CGTTAGACTCT) | 0.0332
CGTTAGTCATGGACCGGTTTTCCCGGTAATCCGTATTTGAG (site CGTTAGACTCT) | 0.0321
CGTTAGTCATGGACCGGTTTTCCCGGTAATCCGTATTTGAG (site CGTTAGCCTCT) | 0.0076

Sequence | recombinant UMI read abundance (log10)
CGTTAGTCATGGACCGGTTTTCCCGGTAATCCGTATTTGAG (site CGTTAGGCTCT) | 0.0227
CGTTAGTCATGGACCGGTTTTCCCGGTAATCCGTATTTGAG (site CGTTAGTCTCT) | 2.05
CGTTCACCATGGACCGGTTTTCCCGGTAATCCGTATTTGCT (site CGATCATCTAG) | 0
CGTTCACCATGGACCGGTTTTCCCGGTAATCCGTATTTGCT (site CGTTCACCTAG) | 0.00366
CGTTCATCATGGACCGGTTTTCCCGGTAATCCGTATTTGAT (site CGATCATCTAG) | 0
CGTTCATCATGGACCGGTTTTCCCGGTAATCCGTATTTGAT (site CGTTCATCTAT) | 0
CGTTCGACATGGACCGGTTTTCCCGGTAATCCGTATTTGAG (site CGTTAGACTCT) | 0.0143
CGTTCGACATGGACCGGTTTTCCCGGTAATCCGTATTTGAG (site CGTTCGACTCT) | 0.635
CGTTCGACATGGACCGGTTTTCCCGGTAATCCGTATTTGAG (site CGTTGGACTCT) | 0.0108
CGTTCGACATGGACCGGTTTTCCCGGTAATCCGTATTTGAG (site CGTTTGACTCT) | 0.0134
CGTTGAACATGGACCGGTTTTCCCGGTAATCCGTATTTGGA (site CGTTGAACTTC) | 0.945
CGTTGAGCATGGACCGGTTTTCCCGGTAATCCGTATTTGCG (site CGTTGAGCTCG) | 1.2
CGTTGGGCATGGACCGGTTTTCCCGGTAATCCGTATTTGCT (site CGTTAGGCTAG) | 0.41
CGTTGGGCATGGACCGGTTTTCCCGGTAATCCGTATTTGCT (site CGTTCGGCTAG) | 0
CGTTGGGCATGGACCGGTTTTCCCGGTAATCCGTATTTGCT (site CGTTGGGCTAG) | 1.65
CGTTGGGCATGGACCGGTTTTCCCGGTAATCCGTATTTGCT (site CGTTTGGCTAG) | 0
CGTTGTCCATGGACCGGTTTTCCCGGTAATCCGTATTTGAA (site CGTTGTCCTTT) | 0.00747
CGTTGTCCATGGACCGGTTTTCCCGGTAATCCGTATTTGTA (site CGTTGTCCTTA) | 0.0342
CGTTTAACATGGACCGGTTTTCCCGGTAATCCGTATTTGGC (site CGTTTAACTGC) | 0.793
CGTTTAGCATGGACCGGTTTTCCCGGTAATCCGTATTTGCT (site CGTTTAGCTAG) | 0
CGTTTAGCATGGACCGGTTTTCCCGGTAATCCGTATTTGCT (site CGTTTCGCTAG) | 0
CGTTTAGCATGGACCGGTTTTCCCGGTAATCCGTATTTGCT (site CGTTTGGCTAG) | 0
CGTTTAGCATGGACCGGTTTTCCCGGTAATCCGTATTTGCT (site CGTTTTGCTAG) | 0

Sequence | recombinant UMI read abundance (log10)
CGTTTGACATGGACCGGTTTTCCCGGTAATCCGTATTTGCT (site CGTTTGACTAG) | 2.38
CGTTTGACATGGACCGGTTTTCCCGGTAATCCGTATTTGCT (site CGTTTGCCTAG) | 0
CGTTTGACATGGACCGGTTTTCCCGGTAATCCGTATTTGCT (site CGTTTGGCTAG) | 1.12
CGTTTGACATGGACCGGTTTTCCCGGTAATCCGTATTTGCT (site CGTTTGTCTAG) | 0
CGTTTGCCATGGACCGGTTTTCCCGGTAATCCGTATTTGCT (site CGTTTGACTAG) | 0
CGTTTGCCATGGACCGGTTTTCCCGGTAATCCGTATTTGCT (site CGTTTGCCTAG) | 0.79
CGTTTGCCATGGACCGGTTTTCCCGGTAATCCGTATTTGCT (site CGTTTGGCTAG) | 0.00559
CGTTTGCCATGGACCGGTTTTCCCGGTAATCCGTATTTGCT (site CGTTTGTCTAG) | 0
CGTTTGGCATGGACCGGTTTTCCCGGTAATCCGTATTTGCG (site CGTTTGGCTAG) | 0
CGTTTGGCATGGACCGGTTTTCCCGGTAATCCGTATTTGCG (site CGTTTGGCTCG) | 0.142
CGTTTGGCATGGACCGGTTTTCCCGGTAATCCGTATTTGCG (site CGTTTGGCTGG) | 0
CGTTTGGCATGGACCGGTTTTCCCGGTAATCCGTATTTGCG (site CGTTTGGCTTG) | 0
CGTTTGGCATGGACCGGTTTTCCCGGTAATCCGTATTTGCT (site AGTTTGGCTAG) | 0
CGTTTGGCATGGACCGGTTTTCCCGGTAATCCGTATTTGCT (site CATTTGGCTAG) | 0
CGTTTGGCATGGACCGGTTTTCCCGGTAATCCGTATTTGCT (site CCTTTGGCTAG) | 0
CGTTTGGCATGGACCGGTTTTCCCGGTAATCCGTATTTGCT (site CGATTGGCTAG) | 0
CGTTTGGCATGGACCGGTTTTCCCGGTAATCCGTATTTGCT (site CGCTTGGCTAG) | 0
CGTTTGGCATGGACCGGTTTTCCCGGTAATCCGTATTTGCT (site CGGTTGGCTAG) | 0
CGTTTGGCATGGACCGGTTTTCCCGGTAATCCGTATTTGCT (site CGTATGGCTAG) | 0.00345
CGTTTGGCATGGACCGGTTTTCCCGGTAATCCGTATTTGCT (site CGTCTGGCTAG) | 0.00793
CGTTTGGCATGGACCGGTTTTCCCGGTAATCCGTATTTGCT (site CGTGTGGCTAG) | 0.00452
CGTTTGGCATGGACCGGTTTTCCCGGTAATCCGTATTTGCT (site CGTTAGGCTAG) | 0
